Consider 4 substances from patent publication US7459522B2 (Affymax, Inc., priority 1999, dated 2008).

Bridge positions count the residues as written; N and C are the ends. Square brackets hold non-standard residues; d marks the D form. Ends that are not written are not given here. I, II: the chains in the order shown. 1Nal = N[C@@H](Cc1cccc2ccccc12)C(=O)O; βAla = NCCC(=O)O

One test addresses T1, huEPOR (Homo sapiens, UniProt P19235).
T1 construct: expressed in transfected cells; host or cells: Ba/F3 (murine pro-B line, own knowledge) carrying huEPOR
T1 sequence (P19235 25-508): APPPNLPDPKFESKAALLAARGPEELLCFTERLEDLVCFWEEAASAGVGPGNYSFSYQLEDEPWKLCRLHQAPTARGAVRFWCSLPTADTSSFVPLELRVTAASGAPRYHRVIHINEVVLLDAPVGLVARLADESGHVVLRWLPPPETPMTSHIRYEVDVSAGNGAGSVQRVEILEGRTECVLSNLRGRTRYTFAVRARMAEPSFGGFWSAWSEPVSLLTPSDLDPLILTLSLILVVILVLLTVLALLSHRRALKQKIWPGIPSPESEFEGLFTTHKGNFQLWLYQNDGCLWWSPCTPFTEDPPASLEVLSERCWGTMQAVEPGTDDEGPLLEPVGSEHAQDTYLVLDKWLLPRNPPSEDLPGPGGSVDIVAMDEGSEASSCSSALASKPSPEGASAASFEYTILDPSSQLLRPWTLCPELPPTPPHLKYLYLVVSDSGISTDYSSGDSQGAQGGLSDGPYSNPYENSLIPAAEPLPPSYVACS
The test can be described thus: Ba/F3-huEPOR cell proliferation assay. Format: cell-based. Conditions: for EC50: concentration required to produce 50% of the maximal activity obtained with recombinant erythropoietin. From the text:
The protocol for each assay is described in Wrighton et al. (1997) Nature Biotechnology 15:1261-1265, and in U.S. Pat. Nos. 5,773,569 and 5,830,851, both to Wrighton et al. and cited earlier herein.

Another test deals with EPO receptor. The note with it: single class of binding sites, 300 to 600 per cell surface; cited from earlier work.

Take “I: GGTYSCHFGPLT[1Nal]VCRPQGGK-NH2 / II: GGTYSCHFGPLT[1Nal]VCRPQGG (amide I:21-II:C; cysteines drawn unpaired) [Example 1]”: the EC50 – broadly, the concentration needed to bring the measured effect to its halfway point – at huEPOR was determined as 6 nM.
The same measure, in the same setting: as for “I: GGTYSCHFGPLT[1Nal]VCRPQGG[βAla]K-NH2 / II: GGTYSCHFGPLT[1Nal]VCRPQGG[βAla] (amide I:22-II:C; cysteines drawn unpaired) [Example 3]”, the figure is 5 nM.
As for Erythropoietin [EPO], the Kd (commonly the constant that tells how readily two partners part at equilibrium) on EPO receptor is around 0.8 nM.
“I: GGTYSCHFGPLT[1Nal]VCRPQGGK-NH2 / II: GGTYSCHFGPLT[1Nal]VCRPQGG (disulfide I:6-I:15, II:6-II:15; amide I:21-II:C) [Example 6]”: the in vitro bioactivity entry on huEPOR (FIG. 5, Isomer 1 compared with Isomer 2, Isomer 3 and the other compounds) is listed as “noticeably higher”.
